Columns and labels:
GSDMD [1] = biological target: T1, GSDMD (Homo sapiens, UniProt P57764); assay: Recombinant GSDMD cleavage by caspase-4; type: biochemical; conditions: 10 μM
T1 sequence (P57764 1-484): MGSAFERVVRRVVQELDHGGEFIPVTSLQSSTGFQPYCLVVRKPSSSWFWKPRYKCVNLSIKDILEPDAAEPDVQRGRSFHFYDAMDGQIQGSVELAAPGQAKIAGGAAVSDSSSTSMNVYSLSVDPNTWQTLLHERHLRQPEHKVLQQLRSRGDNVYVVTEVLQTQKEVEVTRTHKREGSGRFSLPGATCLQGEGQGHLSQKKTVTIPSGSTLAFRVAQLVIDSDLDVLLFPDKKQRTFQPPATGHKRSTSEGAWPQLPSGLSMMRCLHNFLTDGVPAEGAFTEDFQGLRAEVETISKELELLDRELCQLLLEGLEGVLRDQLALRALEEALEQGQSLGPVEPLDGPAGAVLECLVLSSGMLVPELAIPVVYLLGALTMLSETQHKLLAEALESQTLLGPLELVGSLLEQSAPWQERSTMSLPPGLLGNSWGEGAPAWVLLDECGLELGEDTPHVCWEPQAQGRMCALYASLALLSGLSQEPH
Experimental: 1 μg recombinant GSDMD ([Aglietti et al., 2016]) was incubated with 10 μM LDC7559, 30 μM zVAD-fmk, or DMSO vehicle for 20 min, and then combined with 0.15 μg recombinant caspase-4 (750 mU; Abcam) in 20 μL of 50 mM HEPES, pH 7.2, 50 mM NaCl, 0.1% Chaps, 10 mM EDTA and 5% glycerol for 30 min at 37°C.

GSDMD [2] = biological target: T1, GSDMD; assay: LPS-induced cleavage of GSDMD in monocytes (western blot); type: cell-based; design: endogenous in cells; host or cells: primary human monocytes electroporated with LPS; conditions: monocytes electroporated with LPS
Experimental: LDH released into the culture medium was measured 1-3 h post-activation using a CellTox Green Cytotoxicity assay (Promega). IL-1β secretion was measured using a MSD Cytokine Assay, 96-well multi-array Tissue Culture Kit (Meso Scale Discovery). For immunoblotting, monocytes (2 × 10^6) were treated with 10-50 μM LCD7559 or 50 μM VX765 and electroporated with 25 μg/mL LPS using the NEON electroporation system. Cells were lysed after 1 h using lysis buffer (50 mM Tris pH 7.4, 150 mM NaCl, 10% glycerol, 1% NP-40, 1 mM MgCl and 1X Roche cOmplete protease inhibitor cocktail) and protein concentration was determined via BCA protein assay (Peirce). Antibodies for immunoblotting were GSDMD (L60, Cell Signaling Technologies), cleaved GSDMD-Asp275 (E7H9G, Cell Signaling Technologies) and GAPDH (14C10, Cell Signaling Technologies).

E. coli = assay: Phagocytosis assay: E. coli C.F.U. recovered from PMNs; type: cell-based, human; conditions: neutrophils pretreated 30 min
Experimental: Neutrophils (1 × 10^6) were cultured in 6-well tissue in RPMI medium containing DMSO vehicle, 0.5 μM NA-11, 0.5 μM NA-4, 100 μM Apocynin or 100 μM thionicotinamide (TN) for 30 min. E. coli grown in LB broth overnight (2 mL) were opsonized with human serum (1 mL pooled from three donors) for 1 h at room temperature. Opsonized bacteria were washed with PBS, resuspended in LB broth to an OD600of 0.1 and then added to cultured neutrophils at an MOI of 1 for 30 min. Cells were washed with medium three times and then cultured with 300 μg/mL gentamicin for 2 h to kill any extracellular bacteria. Cells were then washed again, twice with medium and once with PBS. To release phagocytosed bacteria, neutrophils were lysed in 0.05% saponin in PBS. Lysates were passed through a 25’ gauge needed several times and the number of viable phagocytosed bacteria was determined by colony counting.

PFKL = biological target: T2, PFKL (Homo sapiens, UniProt P17858); assay: Thermal inactivation assay of PFKL; type: biochemical; conditions: 35°C; 200 μM FBP, 200 nM NA-11
T2 construct: made in house; host or cells: Sf9 insect cells (baculovirus, Bac-to-Bac)
T2 sequence (P17858 1-780): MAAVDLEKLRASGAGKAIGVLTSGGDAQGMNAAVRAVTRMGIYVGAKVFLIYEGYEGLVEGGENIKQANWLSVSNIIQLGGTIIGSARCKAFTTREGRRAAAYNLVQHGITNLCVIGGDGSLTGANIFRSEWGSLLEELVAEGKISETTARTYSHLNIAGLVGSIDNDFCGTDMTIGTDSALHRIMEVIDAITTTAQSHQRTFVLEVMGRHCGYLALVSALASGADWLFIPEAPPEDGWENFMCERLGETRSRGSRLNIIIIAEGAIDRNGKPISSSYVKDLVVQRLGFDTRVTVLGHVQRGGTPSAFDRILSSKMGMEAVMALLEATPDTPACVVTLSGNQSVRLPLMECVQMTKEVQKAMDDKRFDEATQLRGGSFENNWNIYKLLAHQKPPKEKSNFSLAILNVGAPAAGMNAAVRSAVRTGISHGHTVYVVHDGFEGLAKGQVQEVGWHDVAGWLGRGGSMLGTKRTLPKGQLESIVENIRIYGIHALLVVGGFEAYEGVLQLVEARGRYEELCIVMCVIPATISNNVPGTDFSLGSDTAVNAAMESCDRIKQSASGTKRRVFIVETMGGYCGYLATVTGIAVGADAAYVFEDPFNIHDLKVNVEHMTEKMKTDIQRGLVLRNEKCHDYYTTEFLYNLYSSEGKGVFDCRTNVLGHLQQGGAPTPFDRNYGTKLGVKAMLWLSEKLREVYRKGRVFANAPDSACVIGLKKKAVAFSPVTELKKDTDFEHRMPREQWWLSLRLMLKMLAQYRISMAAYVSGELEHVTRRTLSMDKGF
Experimental: Thermal inactivation assays were performed as previously described for PFKP, with modifications to account for the decreased stability of PFKL ([Sánchez-Martínez et al., 2000]). PFKL was diluted to 10 ng/mL, with a final buffer composition of 53.3 mM HEPES, 100 mM KCl, 0.167 mM DTT, 83.3 μM ammonium sulfate, 0.83% glycerol, 0.170 mM ATP, and 16.7 mM EDTA. Samples were incubated at 35°C. At the times indicated, samples were removed and residual PFK1 activity measured using the PK/LDH auxiliary enzyme assay described above with 125 μM ATP and 5 mM F6P. To determine if small molecule ligands altered PFKL stability, 200 μM FBP and 200 nM NA-11 were added.

Row | Compound | cleavage of recombinant GSDMD by caspase-4 (GSDMD [1]) | LPS-induced cleavage of GSDMD (GSDMD [2]) | killing of phagocytosed bacteria (bacterial colonies recovered) (E. coli) | protection of PFKL from thermal inactivation (PFKL)
1 | COc1ccccc1-c1cc2n(n1)Cc1ccc(NC(C)=O)cc1OC2 [LDC7559, reference compound] | did not inhibit cleavage of recombinant GSDMD by caspase-4 | did not prevent LPS-induced cleavage of GSDMD |  | 
2 | CC(=O)Nc1ccc2c(c1)OCc1cc(-c3ccccc3C#CCCCO)nn1C2 [NA-11] |  |  | produced more bacterial colonies than control neutrophils | did not

From PMC8802628, “Selective activation of PFKL suppresses the phagocytic oxidative burst” (Cell, 2021)
